We go through three molecules from patent US5414001A, “Antineoplastic pyrrolo[4,3,2-de]quinolin-8(1H)-ones” (American Cyanamid Company, priority 1993, dated 1995).

Usually IC50 stands for the concentration at which inhibition is half-maximal.

Values joined by “and” are separate entries in the source; they are usually repeats but may differ in a detail not shown here. Equal values may be shown once. Where a name gives a salt, the structure may show the parent alone. Read-outs that look alike come from different tables or passages of the source.

Data set [1] has as its system BR513. It is filed as cell-based.
The test system of data set [2] is P388 murine leukemia. On the set-up: species or system murine (mice). Conditions: mouse, in vivo.
Data set [3] relates to MIP / SW620. In words: SRB cytotoxicity ratio MIP/SW620 (MDR, P-glycoprotein resistance). The data set is classed as cell-based, human. The following applies: 2880 min.
Data set [4] concerns CaCo2 / CX1. In words: SRB cytotoxicity ratio CaCo2/CX1 (growth kinetics). Conditions: IC50 resistant / IC50 sensitive cell line, 2880 min.
Method: (§4) The cytotoxic activity of the pyrrolo[4,3,2-de]quinolin-8(1H)-ones against a panel of >20 human tumor cell lines is determined using the Sulforhodamine B protein dye-binding colorimetric cytotoxicity assay (SRB) described by Skehan et al. (Journal National Cancer Institute 82:1107-1112, 1990), as modified by Monks et al., (Journal National Cancer Institute 83: 757-766, 1991). […] Positive controls (i.e., etoposide) are included in every experiment. Treatments are for 48 hours, after which cells are fixed in 10% trichloroacetic acid (10% final concentration), washed five times with deionized water and stained with SRB solution (0.4% in glacial acetic acid). Protein-bound stain is solubilized with 0.1 ml tris buffer and the adsorbance values are recorded with a microplate reader. Duplicate plates of cells are fixed with trichloroacetic acid at the time of drug addition to establish To values, as described by Monks et al. (JNCl, 83: 757-766, 1991). The effect of drug treatments over the five-long range of concentrations is calculated using the formula, T--To/C--To, to determine the IC50 values.
(§5) 3) The ratio values for DDP/S; CaCo2/CX1; MIP/SW620, and; HCT15/SKBR3 refer to the IC50 value for resistant cell lines included in the tumor cell panel, divided by the IC50 value for corresponding drug sensitive cell lines. For example, DDP is a Cisplatin resistant ovarian carcinoma cell line, and S is the corresponding parent drug sensitive ovarian carcinoma cell line (A2780). […] CaCo2 is a slow growing non P-glycoprotein multidrug resistant colon carcinoma cell line. MIP is a colon carcinoma cell line that expresses P-glycoprotein and is multidrug resistant; SW620 is a drug sensitive colon carcinoma cell line. HCT15 is a colon carcinoma cell line that is resistant to topoisomerase inhibitors and SKBR3 is a breast carcinoma that is very sensitive to topoisomerase inhibitors.
Data set [5] concerns panel of >20 human tumor cell lines. In words: In vitro tumor panel evaluation, Sulforhodamine B (SRB) cytotoxicity assay. It is filed as cell-based. The following applies: for IC50: Homo sapiens, 48 h.
The subject of data set [6] is HCT15 / SKBR3. In words: SRB cytotoxicity ratio HCT15/SKBR3 (topoisomerase resistance). The data set is classed as cell-based, human. The following applies: 2880 min.
For data set [7], the system named is Ovcar3 human ovarian carcinoma. On the set-up: species or system human tumor in Balb/C nu/nu athymic mice. The following applies: in vivo.
In data set [8] the test system is DDP (Cisplatin resistant ovarian carcinoma cell line) / S (A2780). In words: SRB cytotoxicity ratio DDP/S (cisplatin resistance). The following applies: IC50 resistant / IC50 sensitive cell line; cisplatin resistance; 2880 min. The data set is classed as cell-based, human.
Data set [9] deals with E. coli 300. In words: Antibacterial agar diffusion assay. It is filed as cell-based. More on the design: concentration or dose not given beside the values.
The subject of data set [10] is S. aureus meth r 310. In words: Antibacterial agar diffusion assay. Conditions: H = hazy zones. The data set is classed as cell-based. Background: A growth-free zone around the sample is the usual read-out of agar diffusion tests.
For data set [11], the system named is S. aureus 375. In words: Antibacterial agar diffusion assay. It is filed as cell-based. Conditions: H = hazy zones.
Data set [12] relates to S. aureus cipro r 400. In words: Antibacterial agar diffusion assay. The following applies: 64 microgram/ml; H = hazy zones. It is filed as cell-based. The method, then: (§1) One hundred fifty milliliters of agar medium are seeded with 1 ml of diluted culture and aseptically poured into 9 inch×9 inch Nunc bioassay plates. The twenty-five microliters of the test sample dissolved in DMSO are placed in 5.5 mmwells that are cut into agar layer which has been pre-seeded with the test bacterial strains. The plates are incubated at 37° C. for 18-24 hours. Zones of inhibition are recorded.
(§2) ALL SAMPLES IN 20% DMSO
(§3) AGAR DIFFUSION ASSAY 25 microliter sample in 5.5 mm well

Data set [13] concerns E. faecium 379. In words: Antibacterial agar diffusion assay. The following applies: H = hazy zones. It is filed as cell-based. The method, then:
as §1, §2, §3

In data set [14] the test system is CaCo2 / CX1. Conditions: human, Caco-2, 48 h.
Method: as §4, §5
Data set [15] concerns K. pneumoniae 53. In words: Antibacterial agar diffusion assay. The data set is classed as cell-based. Conditions: H = hazy zones.
The test system of data set [16] is B. subtilis 17. In words: Antibacterial agar diffusion assay. Conditions: H = hazy zones. The data set is classed as cell-based.
The subject of data set [17] is C. freundii 395. In words: Antibacterial agar diffusion assay. It is filed as cell-based. Conditions: 1000 microgram/ml; H = hazy zones.

For `C[N+]1=C2C=C(N)C(=O)c3[nH]cc(c32)CC1` [Example 3, 7-amino-1,3,4,8-tetrahydro-5-methyl-8-oxo-pyrrolo[4,3,2-de]quinolinium trifluoroacetate], the “BIA BR513” value in [1] (1000 microgram/ml, T = toxic) stood at 8T. The “P388 ILS %” value in data set [2] was 18%. For the same molecule, the “MIP/SW620 IC50 ratio” value in data set [3] (IC50 resistant / IC50 sensitive cell line, MDR (pglycoprotein) resistance) worked out at 1.1. In addition, the “CaCO2/CX1 IC50 ratio” value in [4] was determined as 0.3. Moreover, the concentration for half-maximal inhibition (IC50) in data set [5] (read-out: AVG IC50) turned out to be 1.7 µg/mL; in [5] (read-out: MAX IC50), 10 µg/mL; in [5] (read-out: MIN IC50), 0.06 µg/mL. The “HCT15/SKBR3 IC50 ratio” value in data set [6] (IC50 resistant / IC50 sensitive cell line, topoisomerase resistance) was 1.9. Moreover, the “Ovcar3 Min T/C %” value in data set [7] is 37%.
Regarding `O=C1C(NC2Cc3cc(Br)c(O)cc3S2)=CC2=NCCc3c[nH]c1c32` (centres unmarked) [Example 6, trifluoroacetate], the “BIA BR513” value in data set [1] is 8T. The “MIP/SW620 IC50 ratio” value in data set [3] (human, mip/sw620 cells) turned out to be 5.1. For the same molecule, the “DDP/S IC50 ratio” value in [8] is 1.8. Moreover, the “ZONES OF INHIBITION” value in data set [9] (trifluoroacetate) was 12 and 11 and 9; in [10] (64 microgram/ml), 8 MM; in data set [10] (250 microgram/ml), 9 MM; in data set [10] (1000 microgram/ml), 10 MM; in [11] (250 microgram/ml), 7H; in [12], 11H. Besides, the “ZONES OF INHIBITION” value in [13] (64 microgram/ml) was 9H; in [13] (250 microgram/ml), 11H; in data set [13] (1000 microgram/ml) it was 12H. Moreover, the “more potent than the reference topoisomerase inhibitor, etoposide” value in [5] came out at 1 log. Moreover, the “CaCO2/CX1 IC50 ratio” value in data set [14] came out at 6.3. For the same molecule, in data set [6] (human, hct15/skbr3 cells), the “HCT15/SKBR3 IC50 ratio” value came out at 3.5.
As to CINODINE, the “ZONES OF INHIBITION” value stood at 9 MM in [9] (1000 microgram/ml, H = hazy zones); 7 MM in [10] (1000 microgram/ml); 7 MM in data set [11] (250 microgram/ml); 9 MM in data set [11] (1000 microgram/ml); 8 MM in data set [15] (16 microgram/ml); 10 MM in data set [15] (64 microgram/ml). Further, the “ZONES OF INHIBITION” value stood at 12 MM in data set [15] (250 microgram/ml); 8 MM in data set [16] (64 microgram/ml); 11 MM in [16] (250 microgram/ml); 13 MM in data set [16] (1000 microgram/ml); 8H in data set [17].
